This note sets out measurements from patent US8461389B2, “Psycho-pharmaceuticals” (University College Dublin, National University of Ireland, …, priority 2008, dated 2013).

Assay [1] deals with C57B16 mice. The assay is described as follows: Open-field test. In kind it is in vivo. Conditions: 3 and 5 mg/kg i.p. once daily for 7 days; FIG. 3. An excerpt: The open field test is designed to measure behavioural responses such as locomotor activity, hyperactivity, and exploratory behaviors. Open field is also used as a measure of anxiety. Rats and mice tend to avoid brightly illuminated, novel, open spaces, so the open field environment acts as an anxiogenic stimulus and allows for measurement of anxiety-induced locomotor activity and exploratory behaviors. Like the elevated maze test described below, open field testing is a one trial test with little or no impact on the animal's subsequent behavior. The apparatus for the open field test was a square (100 cm by 100 cm) made of white Perspex. Each rat is placed in a corner of the field and its behavior recorded for five minutes. All activity is recorded by a video camera mounted above the open field and scored in real-time (or digitized and scored later) by the advanced motion-recognition software package Ethovision by Noldus, that detects and analyzes the movements of the rat or mouse. The total distance, average speed, rearing/elongation behavior, and time spent in various parts of the field (such as, for example, the border areas vs. the open, middle area) is measured and analysed. Testing is carried out in a temperature, noise and light controlled room.
The Experimental protocol employed in the behavioural evaluation of Captodiamine is outlined in FIG. 7. […]

Assay [2] relates to C57B16 mice. The experiment in a line: Elevated X-maze. In kind it is in vivo. Conditions: 3 and 5 mg/kg i.p. once daily for 7 days; FIG. 4. The source says:
The elevated X-Maze, otherwise known as the Elevated Plus Maze is a test that relies on the inherent conflict between exploration of a novel area and avoidance of its aversive features. The test may be used in male or female rats or mice or male gerbils. It is reliable in a wide range of strains and in group-housed or isolated animals. The maze consists of four arms in the form of an x or plus: two open arms and two arms of the same size, also with an open roof but enclosed by walls. The two open arms are opposite each other and converge into a central platform. The animal under investigating is observed by a video camera and its movements scored by the tracking software Ethovision by Noldus. During the experiment the animal is placed in the central platform of the maze facing an open arm and is observed for 5 minutes with the following being measured: number of entries into open arms, number of entries into closed arms, time spent in open arms, time spent in closed arms and finally the time spent in the central square (File et al., Current Protocols in Neuroscience (2004) 8.3.1-8.3.22).
The elevated X-maze has strong claims to validity as an animal model of anxiety and is of great utility in evaluating putative anxiety modulating drugs. The test is based on rodents' natural fear of heights and open spaces. […]

Turning to `CCCCSc1ccc(C(SCCN(C)C)c2ccccc2)cc1` (stereo not drawn) [Captodiamine, 2-[(4-butylsulfanylphenyl)-phenyl-methyl]sulfanyl-N,N-dimethyl-ethanamin], in the assay with C57B16 mice [1], the “basal locomotion in the open-field paradigm” value is given as “no influence on basal locomotion” and the “time spent in the centre of the open-field arena” value was “significantly more time in the centre”. The “time exploring the open arms of the elevated X-maze” value in the assay on C57B16 mice [2] is on record as “significantly longer periods exploring the open arms”.
